# Laboratory results published in article PMC11423303, “Rational Design of Dual-Domain Binding Inhibitors for N-Acetylgalactosamine Transferase 2 with Improved Selectivity over the T1 and T3 Isoforms” (JACS Au, 2024).
# Read-outs that look alike come from different tables or passages of the source. Residues, ends and D or L forms follow the SMILES beside them. *: point of attachment. αGalNAc = CC(=O)N[C@@H]1[C@@H](O)[C@@H](O)[C@@H](CO)O[C@@H]1*; X2 = c1ccc2nc(C*)ccc2c1; X1 = c1csc(C*)c1
# Tests used:
# GalNAc-T2 [1] = target: T1, GalNAc-T2 (Homo sapiens, UniProt Q10471); experiment: Radiometric GalNAc-T2 inhibition assay with labeled UDP-GalNAc donor and MUC1a acceptor peptide; type: biochemical; conditions: for Relative inhibitory activity against GalNAc-T2: normalized concentration of 500 μM
# T1 construct: made in house; host or cells: Pichia pastoris
# Procedure: The glycosylation products were isolated from the radiolabeled donors through chromatographic techniques and analyzed by scintillation counting.
# (§1) 347 4. BIOCHEMICAL STUDIES
# (§2) 348 4.1. Reagents and substrates
# (§3) 349 Stock solutions of inhibitor (5mM) and MUC1a substrate (4mM) were prepared from
# (§4) 350 lyophilized powders. Additional serial dilutions of inhibitor were prepared of 1 mM, 200 µM, 50
# (§5) 351 µM, 10 µM, and 2 µM and the MUC1a substrate of 62.5 µM. Fully N-acetylated UDP-
# (§6) 352 [ 3H]GalNAc was obtained from American Radiolabeled Chemicals Inc (St. Louis, MO) whereas
# (§7) 353 nonlabelled UDP-GalNAc was obtained from Millipore-Sigma (St. Louis, MO). A 0.2 mM stock
# (§8) 354 solution of radiolabeled UDP-GalNAc was prepared by adding UDP-[ 3H]GalNAc to unlabeled
# (§9) 355 UDP-GalNAc to give ~6 x 10^8 DPM/µmole. ScintiVerse BD Cocktail fluid was obtained from
# (§10) 356 Fisher Scientific (Pittsburgh, PA). Liquid scintillation counting was performed on a Beckman
# (§11) 357 LS 6500 Scintillation Counter. BioPureSPN TARGA C18 macro spin columns were obtained
# (§12) 358 from The Nest Group Inc. (Ipswich, MA).
# (§13) 360 4.2. GalNAc-Ts expression
# (§14) 361 Human GalNAc-T1 was a gift of Kelley Moremen (CCRC, University of Georgia) and
# (§15) 362 expressed in HEK293F cells. Human GalNAc-T2, and -T3 were obtained from Ramon
# 363 Hertado-Guerrero (University of Zaragosa, SP) and expressed in Pichia pastoris.
# 366 The glycomimetic inhibitors were optimized using GalNAc-T2 activity assays as previously
# 367 described. The reactions were carried out in a total volume of 50 µl, containing 100 nM
# 369 cpm/nm) as the sugar donor. The designed glycomimetics were tested at a range of
# 371 conducted in 25 mM cacodylate buffer (pH 7.4) with 10 mM MnCl 2 and 0.25% Triton X-100,
# 372 and incubated at 22°C for 30 minutes. Excess UDP-[ 14C]GalNAc was removed from the
# 373 glycosylated peptide using DOWEX 1 chromatography, the product was subsequently
# 374 analyzed through scintillation counting.
# 377 protocol was used except UDP-[ 3H]GalNAc was utilized and the products isolated on Targa
# 378 C18 spin columns as previously described. Final enzyme concentrations were 100 nM for
# 379 GalNAc-T1 and -T3 and 200 nM for GalNAc-T2 while final MUC1a substrate and inhibitor 5
# 380 concentrations were as above. Reactions were incubated at 22°C for 30min for GalNAc-T1
# 381 and -T3 and 3h for GalNAc-T2. After incubation, reactions were quenched with 200µL of 0.5%
# 382 TFA in H 2O and passed through the spin columns. Columns were extensively washed with
# 383 0.1% TFA/H 2O and glycopeptide products eluted with 0.1% TFA in 50/50 acetonitrile/H2O
# 384 followed by 100% acetonitrile. The different eluates were analyzed by scintillation counting on
# 385 a Beckman LS 6500 Scintillation Counter. Relative percent peptide glycosylation was
# 386 calculated from the obtained 3H DPM as described in Ballard et al 2023. Reactions were
# 387 repeated twice for each transferase. After subtracting the no substrate blank, under these
# 390 Percent activity was plotted against the log concentration of inhibitor 19 in µM. […]
# GalNAc-T3 [2] = system: GalNAc-T3; design: method as in Wandall H. H. et al., [16]; conditions: ref Wandall H. H. et al., [16], cited from earlier work
# GalNAc-T2 [3] = system: GalNAc-T2; design: method as in Wandall H. H. et al., [16]; conditions: ref Wandall H. H. et al., [16], cited from earlier work
# GalNAc-T1 [4] = system: GalNAc-T1; design: method as in Wandall H. H. et al., [16]; conditions: ref Wandall H. H. et al., [16], cited from earlier work
# GalNAc-T1 [5] = target: T2, GalNAc-T1 (Homo sapiens, UniProt Q10472); experiment: Radiometric GalNAc-T1 inhibition assay with UDP-[3H]GalNAc and MUC1a acceptor peptide; type: biochemical
# T2 construct: made in house; host or cells: HEK293F cells (gift of Kelley Moremen, CCRC, University of Georgia)
# T2 sequence (Q10472 1-559): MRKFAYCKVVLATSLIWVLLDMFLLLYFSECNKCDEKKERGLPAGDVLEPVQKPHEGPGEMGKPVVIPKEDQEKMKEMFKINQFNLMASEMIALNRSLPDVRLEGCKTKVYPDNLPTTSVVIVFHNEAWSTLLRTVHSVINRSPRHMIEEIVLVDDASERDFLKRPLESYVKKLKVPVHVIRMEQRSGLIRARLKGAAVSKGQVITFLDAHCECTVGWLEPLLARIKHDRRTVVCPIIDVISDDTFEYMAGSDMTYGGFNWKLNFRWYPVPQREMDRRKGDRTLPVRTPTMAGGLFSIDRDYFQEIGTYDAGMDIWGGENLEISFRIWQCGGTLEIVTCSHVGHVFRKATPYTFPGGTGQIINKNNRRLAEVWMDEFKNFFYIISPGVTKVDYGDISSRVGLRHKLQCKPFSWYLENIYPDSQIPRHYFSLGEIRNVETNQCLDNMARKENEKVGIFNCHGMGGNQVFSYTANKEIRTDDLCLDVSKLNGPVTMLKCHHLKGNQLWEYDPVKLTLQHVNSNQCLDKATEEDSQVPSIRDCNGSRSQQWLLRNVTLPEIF
# Procedure: as §1, §2, §3, §4, §5, §6, §7, §8, §9, §10, §11, §12, §13, §14, §15
# (§16) 363 Hertado-Guerrero (University of Zaragosa, SP) and expressed in Pichia pastoris. […]
# 367 described. […]
# (§17) 384 followed by 100% acetonitrile. The different eluates were analyzed by scintillation counting on […]
# (§18) 386 calculated from the obtained 3H DPM as described in Ballard et al 2023. […]
# GalNAc-T3 [6] = target: T3, GalNAc-T3 (Homo sapiens, UniProt Q14435); experiment: Radiometric GalNAc-T3 inhibition assay with UDP-[3H]GalNAc and MUC1a acceptor peptide; type: biochemical
# T3 construct: made in house; host or cells: Pichia pastoris
# T3 sequence (Q14435 1-633): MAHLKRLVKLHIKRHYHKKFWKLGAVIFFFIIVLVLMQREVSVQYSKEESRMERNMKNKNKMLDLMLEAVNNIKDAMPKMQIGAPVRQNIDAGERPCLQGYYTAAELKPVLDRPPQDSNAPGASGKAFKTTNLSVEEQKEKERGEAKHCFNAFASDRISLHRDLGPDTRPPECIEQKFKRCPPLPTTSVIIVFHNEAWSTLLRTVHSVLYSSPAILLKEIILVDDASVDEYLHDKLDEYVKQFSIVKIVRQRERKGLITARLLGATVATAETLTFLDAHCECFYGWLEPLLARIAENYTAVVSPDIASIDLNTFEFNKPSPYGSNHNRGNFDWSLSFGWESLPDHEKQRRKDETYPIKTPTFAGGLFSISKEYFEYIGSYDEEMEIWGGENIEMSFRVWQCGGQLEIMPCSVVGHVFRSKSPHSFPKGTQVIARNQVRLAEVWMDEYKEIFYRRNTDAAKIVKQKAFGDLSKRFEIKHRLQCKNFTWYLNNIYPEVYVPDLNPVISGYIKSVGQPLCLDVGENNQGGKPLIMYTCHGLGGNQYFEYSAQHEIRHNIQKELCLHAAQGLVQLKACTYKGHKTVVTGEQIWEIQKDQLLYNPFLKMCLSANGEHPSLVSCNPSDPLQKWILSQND
# Procedure: as §1, §2, §3, §4, §5, §6, §7, §8, §9, §10, §11, §12, §13, §14, §15, §16, §17, §18
# GalNAc-T6 = system: GalNAc-T6; design: method as in PMID 28362263; conditions: cited from earlier work
# FGF23 levels = system: FGF23 levels; design: method as in PMID 28362263; conditions: chronic kidney disease treatment; cited from earlier work
# GalNAc-T2 [7] = system: GalNAc-T2; design: method as in PMID 28362263; conditions: cited from earlier work
# GalNAc-T3 [8] = system: GalNAc-T3; design: method as in PMID 28362263; conditions: cited from earlier work
# GalNAc-T2 [9] = system: GalNAc-T2; design: method as in PMID 29061849; conditions: read-out: IC50 against GalNAc-T2; cited from earlier work
# [10] = calculated from IC50 by Cheng & Prusoff equation, MUC1a and UDP-GalNAc substrates
# T1 sequence (Q10471 whole entry): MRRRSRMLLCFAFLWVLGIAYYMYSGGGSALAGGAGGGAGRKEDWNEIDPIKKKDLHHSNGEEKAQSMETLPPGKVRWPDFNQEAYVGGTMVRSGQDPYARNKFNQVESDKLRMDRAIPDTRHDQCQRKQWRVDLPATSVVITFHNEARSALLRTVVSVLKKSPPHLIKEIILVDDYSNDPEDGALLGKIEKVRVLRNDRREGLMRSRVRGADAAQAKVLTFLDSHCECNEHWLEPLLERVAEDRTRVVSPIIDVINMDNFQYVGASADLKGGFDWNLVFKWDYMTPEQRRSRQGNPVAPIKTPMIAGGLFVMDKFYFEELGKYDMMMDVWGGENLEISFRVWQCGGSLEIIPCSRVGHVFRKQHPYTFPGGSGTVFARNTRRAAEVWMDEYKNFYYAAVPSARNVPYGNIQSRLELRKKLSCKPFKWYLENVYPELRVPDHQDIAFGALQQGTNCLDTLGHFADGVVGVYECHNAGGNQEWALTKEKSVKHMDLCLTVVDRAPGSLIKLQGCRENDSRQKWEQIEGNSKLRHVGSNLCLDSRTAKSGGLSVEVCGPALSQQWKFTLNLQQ
compound,measurement,setting,value
CC(=O)N[C@H]1[C@@H](O[C@H](C)[C@H](NC(=O)[C@H](C)NC(=O)[C@H](C)NC(=O)[C@H](C)NC(=O)[C@H](C)NC(=O)[C@@H]2CCCN2C(=O)[C@@H](NC(=O)[C@@H]2CCCN2C(=O)[C@H](CSCc2cccs2)NC(=O)[C@@H]2CCCN2C(=O)[C@H](C)NC(=O)[C@H](C)NC(=O)CN)C(C)C)C(=O)N[C@@H](C)C(=O)N[C@@H](C)C(N)=O)O[C@H](CO)[C@H](O)[C@@H]1O [Compound 3] (H-GAAPC(X1)PVPAAAAT(αGalNAc)AA-NH2),IC50,GalNAc-T2 [1],84.5 ± 25.9 µM
N[C@@H](CSCc1cccs1)C(=O)O [Compound 16],Relative inhibitory activity against GalNAc-T2,GalNAc-T2 [1]; MUC1a as acceptor substrate,unable to inhibit the enzyme
"CC(=O)N[C@H]1[C@@H](OP(=O)(O)OP(=O)(O)OC[C@H]2O[C@@H](n3ccc(=O)[nH]c3=O)[C@H](O)[C@@H]2O)O[C@H](CO)[C@H](O)[C@@H]1O [UDP-GalNAc, uridine diphosphate-GalNAc]",Km,GalNAc-T3 [2]; read-out: Km(UDP-GalNAc) GalNAc-T3,29 µM
same,Km,GalNAc-T2 [3]; read-out: Km(UDP-GalNAc) GalNAc-T2,10 µM
same,Km,GalNAc-T1 [4]; read-out: Km(UDP-GalNAc) GalNAc-T1,62 µM
CC(=O)N[C@H]1[C@@H](O[C@H](C)[C@H](NC(=O)[C@H](C)NC(=O)[C@H](C)NC(=O)[C@@H](NC(=O)[C@H](CC(C)C)NC(=O)[C@@H]2CCCN2C(=O)[C@H](CC(C)C)NC(=O)[C@@H]2CCCN2C(=O)[C@H](CSCc2cccs2)NC(=O)[C@@H]2CCCN2)C(C)C)C(=O)N[C@@H](C)C(=O)N[C@@H](C)C(N)=O)O[C@H](CO)[C@H](O)[C@@H]1O [Compound 19] (H-PC(X1)PLPLVAAT(αGalNAc)AA-NH2),IC50,GalNAc-T2 [1],21.4 ± 4.1 µM
same,IC50,"GalNAc-T1 [5]; MUC1a as acceptor substrate, read-out: IC50 against GalNAc-T1",678 ± 197 µM
same,Ki,GalNAc-T1 [5]; [10],668 µM
same,IC50,"GalNAc-T3 [6]; MUC1a as acceptor substrate, read-out: IC50 against GalNAc-T3",171 ± 62.2 µM
same,Ki,GalNAc-T3 [6]; [10],154 µM
CC(=O)N[C@H]1[C@@H](O[C@H](C)[C@H](NC(=O)[C@H](C)NC(=O)[C@H](C)NC(=O)[C@H](C)NC(=O)[C@H](C)NC(=O)[C@@H]2CCCN2C(=O)[C@@H](NC(=O)[C@@H]2CCCN2C(=O)[C@H](CSCc2ccc3ccccc3n2)NC(=O)[C@@H]2CCCN2C(=O)[C@H](C)NC(=O)[C@H](C)NC(=O)CN)C(C)C)C(=O)N[C@@H](C)C(=O)N[C@@H](C)C(N)=O)O[C@H](CO)[C@H](O)[C@@H]1O [Compound 2] (H-GAAPC(X2)PVPAAAAT(αGalNAc)AA-NH2),IC50,GalNAc-T2 [1],396 ± 172 µM
O=C(Nc1ccc(Nc2ccncc2)cc1)c1ccc(Nc2ccnc3ccc([N+](=O)[O-])cc23)cc1 [T3Inh-1],Activity against T6 variant,GalNAc-T6,no activity
same,FGF23 levels in mice,FGF23 levels,lower the FGF23 levels
same,Activity against T2 variant,GalNAc-T2 [7],no activity
same,Activity against GalNAc-T3,GalNAc-T3 [8],can act against GalNAc-T3
"OCc1cccs1 [Compound 5, 2-thiophenemethanol]",Relative inhibitory activity against GalNAc-T2,GalNAc-T2 [1]; MUC1a as acceptor substrate,unable to inhibit the enzyme
MUC1a: model peptide acceptor substrate with sequence AHGVTSAPDTR,Km,GalNAc-T3 [2]; read-out: Km(MUC1a) GalNAc-T3,90 µM
same,Km,GalNAc-T2 [3]; read-out: Km(MUC1a) GalNAc-T2,2130 µM
same,Km,GalNAc-T1 [4]; read-out: Km(MUC1a) GalNAc-T1,660 µM
O=c1cc(-c2ccc(O)c(O)c2)oc2cc(O)cc(O)c12 [luteolin],IC50,GalNAc-T2 [9],14.7 µM
thiophene [Compound 15],Relative inhibitory activity against GalNAc-T2,GalNAc-T2 [1]; MUC1a as acceptor substrate,unable to inhibit the enzyme
CC(=O)N[C@H]1[C@@H](O[C@H](C)[C@H](NC(=O)[C@H](C)NC(=O)[C@H](C)NC(=O)[C@H](C)NC(=O)[C@H](C)NC(=O)[C@@H]2CCCN2C(=O)[C@H](Cc2c[nH]c3ccccc23)NC(=O)[C@@H]2CCCN2C(=O)[C@H](CSCc2cccs2)NC(=O)[C@@H]2CCCN2)C(=O)N[C@@H](C)C(=O)N[C@@H](C)C(N)=O)O[C@H](CO)[C@H](O)[C@@H]1O [Compound 18] (H-PC(X1)PWPAAAAT(αGalNAc)AA-NH2),IC50,"GalNAc-T2 [1]; MUC1a as acceptor substrate, read-out: IC50 against GalNAc-T2",55.7 ± 31.5 µM
